From patent US20220402973A1, “POLYPEPTIDE FRAGMENT C (MP-C) AND USE THEREOF” (SHANGHAI LONGXIN BIOMEDICAL TECHNOLOGY CO., LTD., priority 2021, published 2022)

B1: THTVGSYFSVQNGYVGAFSQALGNSEYAMNSPLGSLDGRTTMYNLLGVKYLFAREDQLKKQ (peptide, listed as Lactobacillus plantarum)
chain: THTVGSYFSVQNGYVGAFSQALGNSEYAMNSPLGSLDGRTTMYNLLGVKYLFAREDQLKKQ
notes: positive control

Columns and labels:
Assay type in all cases: in vivo, mice (male C57BL6)
DSS-induced IBD in mice [1] = experiment: Colonic histopathological evaluation (HE staining) in DSS-induced IBD mice; settings: DSS 2.5 wt % induced IBD mice, 50 μg/kg intragastric daily, mean±SD, model group 5.6±0.7, blank 0.0±0.0
Excerpt: (§1) The administration of a DSS solution with a specified concentration to mice can induce an acute IBD model characterized by diarrhea, hematochezia, ulcer, and granulocyte infiltration. Mice were randomly grouped according to body weights of the mice. 40 healthy male C57BL6 mice were divided into four groups each with 10 mice:
MIMP positive control group: the mice were each given a pre-administration process for one week, that is, the mice were each intragastrically administered with an MIMP solution of a mass fraction of 50 μg/kg for the first 7 days, and then from day 8, the mice were each intragastrically administered with a DSS aqueous solution of a mass fraction of 2.5 wt % (at a volume of 0.4 mL/20 g) and an MIMP solution of a mass fraction of 50 μg/kg (at a volume of 0.4 mL/20 g) every day; and […]
(§2) Experimental data in the above experimental method were expressed as (x±SD), the GraphPad Prism (ver. 8.0, GraphPad Software Inc., San Diego, Calif., USA) was used to plot a chart, the SPSS Program (ver. 25.0, SPSS Inc., Chicago, Ill., USA) was used for statistical test, and one-way ANOVA or independent two-sample t-test were used for significance test when the normality and homogeneity of variances were met. […]

IFN-γ = experiment: ELISA of colonic IFN-γ expression in DSS-induced IBD mice; settings: DSS 2.5 wt % induced IBD mice; 50 μg/kg intragastric daily; colon homogenate ELISA; mean±SD; model group 1223.1±41.5, blank 889.2±74.6
Protocol: as §1, with “mice: […]” for “mice:”
The colon sample frozen at −80° C. in step 1.2 was placed in an EP tube, PBS and magnetic beads were added, and then the colon sample was subjected to ultrasonic homogenization in a tissue grinder; and a resulting homogenate was centrifuged, and a resulting supernatant was collected. […] Appropriate primary and secondary antibodies were used according to the instructions, an o-phenylenediamine (OPD) chromogenic solution was used for color development, and after the reaction was terminated, reading was conducted on a microplate reader at a wavelength of 490 nm, with three replicate wells for each sample.
as §2

DSS-induced IBD in mice [2] = experiment: DAI scoring in DSS-induced acute IBD mouse model; settings: DSS 2.5 wt % induced IBD mice, 50 μg/kg intragastric daily; for DAI (disease activity index) score: 7 days pre-administration then with DSS, end of experiment, mean±SD, model group 3.7±0.6, blank 0.0±0.0; for body weight of mice (effect of intervention): versus model group
Protocol: as §1
blank control group: the mice were each intragastrically administered with water every day at a volume of 0.4 mL/20 g;
model group: the mice were each intragastrically administered with a DSS aqueous solution of a mass fraction of 2.5 wt % consecutively for 7 days, where the DSS aqueous solution was freshly prepared and changed every day;
(§3) MIMP positive control group: the mice were each given a pre-administration process for one week, that is, the mice were each intragastrically administered with an MIMP solution of a mass fraction of 50 μg/kg for the first 7 days, and then from day 8, the mice were each intragastrically administered with a DSS aqueous solution of a mass fraction of 2.5 wt % (at a volume of 0.4 mL/20 g) and an MIMP solution of a mass fraction of 50 μg/kg (at a volume of 0.4 mL/20 g) every day; and
as §3, with “MP-C experimental” for “MIMP positive control”, “MP-C” for “MIMP”, “and” for “and then”, “day.” for “day; and”
The body weight changes of mice in each group were recorded every day to determine whether the acute IBD mouse model was successfully established.
(§4) After DSS induction, the body weight changes, activities, and feces viscosity of the mice in each group were recorded every day. […] A mouse colon between an anus end to an ileocecal end was integrally collected, and a length of the colon was measured; and the colon was dissected along a longitudinal axis, feces therein was rinsed off, and then the colon was stored in 4% […] or frozen at −80° C.
Experimental data in the above experimental method were expressed as (x±SD), the GraphPad Prism (ver. 8.0, GraphPad Software Inc., San Diego, Calif., USA) was used to plot a chart, the SPSS Program (ver. 25.0, SPSS Inc., Chicago, Ill., USA) was used for statistical test, and one-way ANOVA or independent two-sample t-test were used for significance test when the normality and homogeneity of variances were met. It was assumed that α=0.05, and P<0.05 indicates a statistically significant difference.

DSS-induced IBD in mice [3] = experiment: Colon length in DSS-induced acute IBD mouse model; settings: DSS 2.5 wt % induced IBD mice; 50 μg/kg intragastric daily; mean±SD; model group 6.4±0.5, blank 9.5±0.5; in cm (unit assumed)
Protocol: as §1, with “mice: […]” for “mice:”
as §4, §2

Molecule	colonic histopathologic score (DSS-induced IBD in mice [1])	expression level of IFN-γ in colon (IFN-γ)	DAI (disease activity index) score (DSS-induced IBD in mice [2])	body weight of mice (effect of intervention) (DSS-induced IBD in mice [2])	colon length (DSS-induced IBD in mice [3])
THTVGSYFVVQNGYVGAFSYALGNSEYAMSSPLGSLDGRTTRYNLL (THTVGSYFXVQNGYVGAFSXALGNSEYAMXSPLGSLDGRTTXYNLL; Sequence is synthesized; (9)..(9) Xaa can be Tyr, Val, Gly, Ser, or Gln; (20)..(20) Xaa can be Ser, Gln, Glu, or Tyr; (30)..(30) Xaa can be Asn, Thr, Ser, Pro, or Leu; (42)..(42) Xaa can be Gly, Arg, Met, or absent) [MP-C]	1.2±0.2	1068.4±61.2	2.0±0.3	prevented the significant decrease in body weight	9.2±0.2
B1	1.4±0.7	1011.4±79.5	2.7±0.7	prevented the significant decrease in body weight	9.5±0.3
